Laboratory results from article PMC9774600, “Oligopeptide Sortase Inhibitor Modulates Staphylococcus aureus Cell Adhesion and Biofilm Formation” (Antibiotics, 2022).
Entries after “also recorded” stand apart in the source; their conditions may differ.

Legend:
[1] = tested on: S. aureus ATCC 29213 (MSSA) biofilm; test: Inhibition of biofilm formation assay; assay type: cell-based, Staphylococcus aureus; settings: 100 µmol/L LPRDA
Procedure: (§1) The assay was performed according to the protocol described by O’Toole, with minor modifications. To evaluate the effect of LPRDA on biofilm formation by the S. aureus ATCC 29213 and S. aureus ATCC 43300 strains, 150 µL of sterile LB broth with 4% glucose containing 12.5–100 µmol/L concentrations of LPRDA was added to four wells of 96-well plates. Then, 50 µL of staphylococcal culture (1 × 10^7 CFU/mL) was added and incubated at 37 °C for 24 h. LB culture broth that was not treated with LPRDA was used as the positive control. After 24 h, the plates were washed with PBS to remove planktonic and dead cells, stained with a 0.1% solution of gentian violet for 20 min, followed by extraction of the bound dye with 96% ethanol. The optical density (OD) of the obtained extracts was measured at 570 nm using a SPECTROstar Nano spectrophotometer.
(§2) The bacterial strains were classified into categories according to the Stepanović criteria. Quantitative calculation of S. aureus CFU in the biofilm formed in the presence of LPRDA and in the control experiments was assessed by inoculation on Columbia agar according to the Koch procedure. Inhibition of biofilm formation was determined according to the Kumari method.

[2] = tested on: S. aureus ATCC 43300 (MRSA) biofilm; test: Inhibition of biofilm formation assay; assay type: cell-based, Staphylococcus aureus; settings: 24 h
Procedure: as §1, §2

S. aureus SrtA = settings: read-out: IC50 inhibition of the recombinant enzyme; cited from earlier work
[3] = assay type: physicochemical
Source text: The pentapeptide LPRDA was synthesized using the solid-phase peptide 9-fluorenylmethoxycarbonyl chemistry method. […] HRMS (ESI, m/z): [M + H]^+ calculated for C24H42N8O8, 571.3204; found, 571.3188.

[4] = tested on: S. aureus-induced mastitis; settings: mouse model; cited from earlier work
Source text: Only a few SrtA inhibitors have been evaluated in vivo, and so far, none have advanced to clinical trials, which would necessitate an actual efficacy evaluation and follow-up of the in-depth studies of these compounds [17]. […] Due to our interest in the development of novel antibacterials with antiadhesive mechanisms of action, we selected a reference compound with ...

[5] = tested on: community-associated MRSA strain USA300; settings: 25 µmol/L LPRDA, compared with srtA mutants; cited from earlier work
Procedure: Wang et al. studied the community-associated MRSA strain USA300 and its srtA mutants in a biofilm formation assay. […] We studied the influence of LPRDA at concentrations of 12.5 to 100 µmol/L on biofilm production by the MSSA and MRSA strains used in this adhesion experiment. We observed a concentration-dependent decrease in the amount of biofilm formed by the S. aureus ATCC 29213 (MSSA) strain when it was incubated with increasing concentrations of LPRDA (F ...

S. aureus = settings: cited from earlier work
Source text: This concentration is at least eight times higher than those used for inducing antiadhesive effects, which is consistent with the LPRDA MIC > 200 µmol/L reported in [18]. A lack of bactericidal activity is an essential property for antivirulence therapeutics. The following experiments have found differ ...

[6] = tested on: S. aureus ATCC 29213 (MSSA) adhesion to Vero cells; test: Adhesion of LPRDA-modified S. aureus to Vero cells; assay type: cell-based, Staphylococcus aureus; settings: for AI (adhesion index): control 5.2 ± 0.3; for PI (percentage of infected cells): control 100; for ML (microbial load, AI×PI): control 516.7 ± 31.1
Procedure: (§3) The influence of LPRDA on staphylococcal adhesive properties was evaluated using preliminary incubation of the studied bacterial strains with LPRDA for 18 h and subsequent microscopic detection of adhesion cases of the modified staphylococci to African green monkey kidney epithelial cells (Vero). The following parameters were determined from the adhesion experiments: adhesion index (AI), defined as the average number of attached bacterial cells per eukaryotic cell; percentage of infected cells (PI), defined as the proportion of Vero cells with bacteria adhered to their surface; microbial load (ML), defined as a product AI×PI; and adhesion inhibition index (AII), defined as the ratio of experimental AI to control.
(§4) Vero cells were seeded in 96-well plates at 25 × 10^3 cells/well and grown overnight. Bacterial cells (S. aureus ATCC 29213 or S. aureus ATCC 43300) were incubated with the oligopeptide LPRDA in the concentration range 12.5–100 µmol/L at 37 °C for 18 h with constant shaking at 100 rpm. Luria–Bertani (LB) medium and untreated bacteria served as a control. After incubation, the bacterial suspension was centrifuged at 10,000× g rpm for 10 min and washed twice with sterile PBS for 5 min at 10,000 rpm. The final bacterial concentrations were adjusted to the OD560 of 0.3 McFarland in sterile saline. Next, the monolayer of Vero cells in the 96-well plates was inoculated with 100 μL of the bacterial suspension with an equal volume of the stock DMEM culture medium and incubated for 1 h. The monolayer was washed three times with phosphate-buffered saline (PBS), followed by fixation with 4% formaldehyde for 60 min. Then, the wells of the plates were washed twice with PBS, dried, and stained with purified gentian violet solution (1%) for 15 min. The dye was removed, and images were captured in […] at 40× using an Evos FL microscope (Thermo Fisher Scientific, Waltham, MA, USA). Images were captured in 4–10 random fields of view at 40-fold magnification using an Evos FL microscope. Images were analyzed using ImageJ Fiji software v1.53c.

[7] = tested on: S. aureus ATCC 43300 (MRSA) adhesion to Vero cells; test: Adhesion of LPRDA-modified S. aureus to Vero cells; assay type: cell-based, Staphylococcus aureus; settings: for AI (adhesion index) / PI (percentage of infected cells) / ML (microbial load, AI×PI): 18 h pre-incubation; for AI (adhesion index): control 7.6 ± 0.1; for PI (percentage of infected cells): control 100; for ML (microbial load, AI×PI): control 755.9 ± 10.6
Procedure: as §3, §4

[8] = MSSA pre-incubated 18 h with 100 µmol/L LPRDA, then 1 h with Vero cells, mean ± SD
[9] = MSSA, 12.5 µmol/L LPRDA, 18 h pre-incubation
[10] = MSSA, 25 µmol/L LPRDA, 18 h pre-incubation, mean ± SD
[11] = MSSA, 50 µmol/L LPRDA, 18 h pre-incubation, mean ± SD
[12] = MSSA, 100 µmol/L LPRDA, p = 0.021
[13] = highest studied LPRDA concentration (100 µmol/L), p = 0.01

Leu-Pro-Arg-Asp-Ala [LPRDA]
Number of sessile bacterial cells in biofilm ([1]; 24 h, control 5 × 10^6 CFU/mL, inoculation on Columbia agar): 5 × 10^5 CFU/mL | Reduction in biofilm ([1]; 24 h, gentian violet OD 570 nm): 44% | Decrease in sessile cell bacteria number ([1]; 24 h incubation): 10 fold | Decrease in biofilm formation (biomass) ([2]; 100 µmol/L LPRDA (maximum decrease), gentian violet OD 570 nm): 12% | Number of sessile bacteria versus control ([2]; 12.5–100 µmol/L LPRDA): No significant difference | IC50 (S. aureus SrtA): 10.6 µM | Solubility [3]: soluble in water | Protection against S. aureus-induced mastitis [4]: demonstrated protection against S. aureus-induced mastitis | Biofilm formation [5]: attenuated biofilm formation to the level of knocked out bacteria | MIC (S. aureus): > 200 µM | AI (adhesion index) [6, 8]: 3.4 ± 0.4; 0.021 | PI (percentage of infected cells) [6, 8]: 84.0 ± 2.8; 0.021% | ML (microbial load, AI×PI) [6, 8]: 286.9 ± 38.8; 0.009 | AI (adhesion index) [6, 9]: 5.4; 0.53 | PI (percentage of infected cells) [6, 9]: 100; 0.53% | ML (microbial load, AI×PI) [6, 9]: 542.9; 0.53 | AI (adhesion index) [6, 10]: 4.8 ± 0.2; 0.43 | PI (percentage of infected cells) [6, 10]: 99.0 ± 0.8; 0.373% | ML (microbial load, AI×PI) [6, 10]: 471.1 ± 26.5; 0.414 | AII (adhesion inhibition index, ratio of experimental AI to control) ([6]; MSSA, 50 µmol/L LPRDA): 55.8% | AI (adhesion index) [6, 11]: 2.9 ± 0.2; 0.01 | PI (percentage of infected cells) [6, 11]: 85.0 ± 4.6; 0.054% | ML (microbial load, AI×PI) [6, 11]: 240.8 ± 9.2; 0.002 | AII (adhesion inhibition index, ratio of experimental AI to control) ([6]; MSSA, 100 µmol/L LPRDA): 65.4% | AI reduction ([6]; MSSA, 100 µmol/L LPRDA, 1 h incubation with Vero cells): 1.5 times | ML decrease relative to the control ([6]; MSSA, 100 µmol/L LPRDA, p = 0.009): 45% | AI decrease relative to the control [6, 12]: 34.6% | PI decrease relative to the control [6, 12]: 16% | Antiadhesive effect ([6]; MSSA, LPRDA concentrations below 50 µmol/L): did not have a notable antiadhesive effect | AI (adhesion index) ([7]; 12.5 µmol/L LPRDA): 7.9; 0.056 | PI (percentage of infected cells) ([7]; 12.5 µmol/L LPRDA): 100; – % | ML (microbial load, AI×PI) ([7]; 12.5 µmol/L LPRDA): 790.2; 0.056 | PI (percentage of infected cells) ([7]; 25 µmol/L LPRDA): 100; – % | AI (adhesion index) ([7]; 25 µmol/L LPRDA, mean ± SD): 7.4 ± 0.1; 0.516 | ML (microbial load, AI×PI) ([7]; 25 µmol/L LPRDA, mean ± SD): 744.2 ± 8.3; 0.516 | PI (percentage of infected cells) ([7]; 50 µmol/L LPRDA): 100; – % | AI (adhesion index) ([7]; 50 µmol/L LPRDA, mean ± SD): 7.3 ± 0.2; 0.332 | ML (microbial load, AI×PI) ([7]; 50 µmol/L LPRDA, mean ± SD): 727.4 ± 18.2; 0.33 | PI (percentage of infected cells) ([7]; 100 µmol/L LPRDA): 100; – % | ML (microbial load, AI×PI) ([7]; 100 µmol/L LPRDA, mean ± SD): 679.2 ± 13.6; 0.01 | AI (adhesion index) ([7]; 100 µmol/L LPRDA, then 1 h with Vero cells, mean ± SD): 6.8 ± 0.1; 0.01 | Antiadhesive effect ([7]; 12.5–100 µmol/L LPRDA): did not induce an appreciable antiadhesive effect; also recorded: did not induce a significant antiadhesive effect | AI lower than the control [7, 13]: approximately 10% | ML lower than the control [7, 13]: approximately 10%
